# Source: US9265845B2, “Imaging methods using engineered integrin binding peptides” (The Board of Trustees of the Leland Stanford Junior …, priority 2006, dated 2016)
# “Also recorded” adds a separate entry of the source. Read-outs that look alike come from different tables or passages of the source. Positions of bridges follow the written chain, without caps; N, C: chain ends. Residues, ends and D or L forms follow the SMILES beside them. No end group written: not given here.
# Key:
# [1] = target: T1, αvβ3 integrin (Homo sapiens, UniProt P05106+P06756); test: Yeast-displayed peptide binding to soluble αvβ3 integrin, flow cytometry; conditions: yeast-displayed peptides
# Experimental: The yeast display construct shown in FIG. 1A has the general orientation: Aga2-HA-engineered knottin—c-myc epitope, with the c-myc epitope at the carboxy terminus of the peptide. […] Bound integrin is detected with an anti-integrin antibody, labeled with FITC.
# Below is a typical protocol to label a yeast library samples for sorting by flow cytometry (FACS): • 1. Want 2×10^6 cells, OD600 of […] • 2. Add 1 mL PBS/BSA (phosphate buffered saline containing 1 mg/mL bovine serum albumin) to wash cells • 3. Spin down cells 3 min at 8000 RPM • 4. Remove supernatant using vacuum • 5. Re-suspend in 40 μL PBS/BSA containing proper amount of integrin (100 nM [2.5 μL of stock αvβ3]; no anti-cmyc at this point) • 6. Incubate for 1.5 h at r.t (w/tumbling) • 7. Add 1:250 dilution of (chick anti-cmyc) to labeling solution • 8. […] Incubate 1 h at 4° C. (w/tumbling) • 10. Keep on ice after this step. • 11. Spin down cells 3 min at 8000 RPM, 4° C. and vacuum supernatant • 12. Repeat wash steps 2-4 • 13. Re-suspend in 40 μL PBS/BSA containing proper amount of secondary labels (secondary labeling is simultaneous) • i. Anti-integrin Ab (FITC conj): 1:25 dilution+Anti-chick (Alexa 555): 1:100 dilution • ii. Positive control: Anti-chick (Alexa 555): 1:100 dilution (for FACS compensation) • iii. Positive control: Anti-chick (Alexa 488): 1:100 dilution (for FACS compensation) • 14. Incubate on ice 30 min and keep in dark (lid on ice bucket) • 15. Spin down cells at 3 min at 8000 RPM, 4° C. and vacuum supernatant • 16. Repeat steps 2-4: Add 1 mL PBS/BSA, pellet cells, vacuum supernatant • 17. Leave pelleted cells on ice until use. Fluorescent Cell Sorting
# Commercially available flow cytometers can measure fluorescence emissions at the single-cell level at four or more wavelengths, at a rate of approximately 50,000 cells per second (Ashcroft and Lopez, 2000). Typical flow cytometry data are shown in FIG. 4-7, in which yeast have been labeled with two different color fluorescent probes to measure protein expression levels and bound soluble ligand (in this case integrin receptor). A ‘diagonal’ population of cells results due to variation in protein expression levels on a per cell basis: cells that express more protein will bind more ligand. The equilibrium binding constant (Kd) can be determined by titration of soluble ligand, and the dissociation rate constant (koff) can be measured through competition binding of unlabeled ligand. With yeast, a monodispersity of tethered proteins exists over the cell surface, and soluble ligand are used for binding and testing, such that avidity effects are not observed, unlike other display methods using immobilized ligands. To date, the properties of most proteins expressed on the yeast cell surface mimic what is seen in solution in terms of stability and binding affinity (Bader et al., 2000; Feldhaus et al., 2003; Holler et al., 2000; VanAntwerp and Wittrup, 2000). See, also, Weaver-Feldhaus et al., “Directed evolution for the development of conformation-specific affinity reagents using yeast display,” Protein Engineering Design and Selection Sep. 26, 2005 18(11):527-536.
# Cell sorting was carried out on a FACSVantage (BD Biosciences) multiparameter laser flow cytometer and cell sorter. Before sorting, fluorescent staining was carried out as described above, so that analysis of integrin binding and c-myc expression levels were detected, as described above. […]
# [2] = tested on: subcutaneous U87MG glioblastoma tumors; test: In vivo optical imaging of Cy5.5-labeled peptides in U87MG xenograft mice; parameters: species or system mouse
# Experimental: FIG. 8A is a series of 4 pictures showing in vivo imaging of Cy5.5-labeled polypeptides in mice. 1.5 nmol of Cy5.5-labeled EETI-RGD peptide 2.5D or other indicated peptide was injected by tail vein into U87MG glioblastoma xenograft mouse models and imaged at various time points post injection. Arrows indicate the position of tumors. […] Cy5.5-labeled FN-RDG negative control (bottom line, open squares) indicates background levels.
# Whole-body imaging of subcutaneous mouse xenografts were imaged with the IVIS 200 system (Xenogen) and quantified with Living Image 2.50.1 software.
# [3] = tested on: U87MG tumor; test: MicroPET imaging and biodistribution of radiolabeled peptides in U87MG tumor-bearing mice; assay type: in vivo, mouse; conditions: radiolabeled peptides, U87MG tumor-bearing mice
# Method in brief: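 Female athymic nude mice carrying subcutaneous U87MG xenografts (8–10 mm) received ~100 μCi 64Cu-DOTA peptides i.v. (tail vein); static microPET scans under 2% isoflurane. %ID/g obtained from ROIs on decay-corrected images assuming 1 g/mL density, without attenuation correction. Biodistribution measured by γ-counting of excised tissues, reported as %ID/g mean±SD.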
# [4] = target: αvβ5 integrin (Homo sapiens, UniProt P06756+P18084); test: Competition of 125I-echistatin to detergent-solubilized plate-coated integrin; assay type: binding; conditions: 0.06 nM 125I echistatin, 5 nM and 50 nM peptide
# Method in brief: (§1)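 Detergent-solubilized integrins were coated on plates. Displacement of 0.06 nM 125I-echistatin by unlabeled peptide was measured at 5 nM and 50 nM. Experiments were run in triplicate.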
# [5] = target: T1, αvβ3 integrin; test: as above; assay type: binding; conditions: 0.06 nM 125I echistatin, 5 nM and 50 nM peptide
# Method in brief: as §1
# [6] = target: α5β1 integrin (Homo sapiens, UniProt P05556+P08648); test: as above; assay type: binding; conditions: 0.06 nM 125I echistatin, 5 nM and 50 nM peptide
# Method in brief: as §1
# [7] = target: αiibβ3 integrin (Homo sapiens, UniProt P05106+P08514); test: as above; assay type: binding; conditions: 0.06 nM 125I echistatin, 5 nM and 50 nM peptide
# Method in brief: as §1
# [8] = target: T1, αvβ3 integrin; conditions: cited from earlier work
# [9] = tested on: K562-αvβ3 cells; test: Inhibition of vitronectin-mediated adhesion of K562-αvβ3 cells; assay type: cell-based; conditions: vitronectin-coated microtiter wells
# Experimental: To determine whether the engineered AgRP peptides could inhibit cell adhesion mediated by vitronectin, the primary ligand for αvβ3 integrin, K562-αvβ3 cells were incubated with varying concentrations of peptides in microtiter wells coated with vitronectin to determine the ability of the peptides to inhibit cell adhesion. […] This difference may be a result of multivalent interactions between the cell surface αvβ3 integrins and the immobilized vitronectin, thereby making it more difficult for the peptides to compete.
# [10] = target: T2, αvβ3 integrin on U87MG glioblastoma cells (Homo sapiens, UniProt P05106+P06756); test: 125I-echistatin competition binding to U87MG glioblastoma cells; conditions: read-out: IC50, competition with 125I-echistatin, U87MG tumor cells
# T2 construct: host or cells: U87MG glioblastoma cells
# Experimental: FIG. 9 is a graph showing normalized competition plotted against peptide concentration in an integrin-binding assay on U87MG glioblastoma cells.
# U87MG glioblastoma cells, which express ˜10^5 αvβ3 integrin receptors per cell, were used for these studies. […] An EETI-based polypeptide with a scrambled RDG amino acid sequence, designated FN-RDG, served as a negative control.
# Half-maximal inhibitory concentrations (IC50) […] of data measured on at least three separate days. Data for unlabeled and Cy5.5-labeled peptides are shown. Site-specific labeling of RGD miniproteins with a near-infrared optical imaging probe: The free N-terminal amine of our polypeptides was used for site-specific attachment of Cy5.5, a near infrared imaging probe.
# An αvβ3 integrin receptor binding assay is performed to determine the relative affinities of the mock-PET tracers compared to their unlabeled polypeptides. Briefly, 2×10^5 U87MG glioblastoma cells are incubated with 0.06 nM ^125I-echistatin in integrin binding buffer (25 mM Tris-HCl, pH 7.4, 150 mM NaCl2 1 mM CaCl2 1 mM MgCl2, 1 mM MnCl2, 0.1% BSA), in the presence of increasing concentrations of mock-PET tracers at room temperature. After incubation for 3 h, cells are pelleted by centrifugation at 1500 RPM and washed three times in binding buffer to remove unbound ligands. The radioactivity remaining in the cell pellet is measured by γ counting. IC50 values are determined by plotting the % competition and using a four-point binding equation (Kaleidagraph) to fit the data.
# [11] = tested on: U87MG glioblastoma cells; test: Blocking of U87MG cell adhesion to fibronectin-coated plates; assay type: cell-based
# [12] = tested on: U87MG glioblastoma cells; test: Blocking of U87MG cell adhesion to vitronectin-coated plates; assay type: cell-based; conditions: vitronectin-coated wells
Molecule,integrin binding compared in words [1],"tumor uptake / imaging signal of Cy5.5-labeled peptide, in words [2]","PET tumor targeting / imaging signal, in words [3]","binding to αvβ5 integrin, in words [4]","binding to αvβ3 integrin, in words [5]","binding to α5β1 integrin, in words [6]","binding to αiibβ3 integrin, in words [7]",Kd [8] [nM],IC50 [9] [nM],IC50 ([10]; Cy5.5-labeled peptides (Cy5.5: Yes)) [nM],IC50 ([10]; unlabeled peptides (Cy5.5: No)) [nM],"blocking of U87MG cell adhesion to fibronectin, in words [11]",IC50 [12] [nM]
"CC(C)C[C@@H]1NC(=O)[C@@H]2CSSC[C@@H](C(=O)NCC(=O)O)NC(=O)[C@H](Cc3ccccc3)NC(=O)CNC(=O)[C@H](CC(N)=O)NC(=O)[C@@H]3CCCN3C(=O)CNC(=O)[C@@H]3CSSC[C@H](NC(=O)[C@H](CO)NC(=O)[C@H](CO)NC(=O)[C@H](C)NC(=O)[C@@H]4CCCN4C(=O)[C@H](CO)NC(=O)[C@H](CC(=O)O)NC(=O)CNC(=O)[C@H](CCCNC(=N)N)NC(=O)CNC(=O)[C@H]([C@@H](C)O)NC(=O)[C@H](C(C)C)NC(=O)[C@@H](NC(=O)CN)CSSC[C@H](NC(=O)CNC(=O)[C@H](C)NC1=O)C(=O)N[C@@H](C(C)C)C(=O)N3)C(=O)N[C@@H](CCCCN)C(=O)N[C@@H](CCC(N)=O)C(=O)N[C@@H](CC(=O)O)C(=O)N[C@@H](CO)C(=O)N[C@@H](CC(=O)O)C(=O)N2 [RGD-EETI#3] (H-GCVTGRGDSPASSCKQDSDCLAGCVCGPNGFCG-OH; disulfide 2-24, 14-26, 20-32; N-terminus and C-terminus assumed)",binds better than the 10th domain of fibronectin,significantly weaker imaging signals,significantly weaker imaging signals,,,,,,,,,,
"ECESGPCCRNCKFLKEGTICKRARGDDMDDYCNGKTCDCPRNPHKGPAT (disulfide 2-11, 7-32, 8-37, 20-39 (inferred)) [Echistatin, echistatin]",,,,binds strongly; also recorded: bound strongly,binds strongly; also recorded: bound strongly,binds strongly; also recorded: bound strongly,binds strongly; also recorded: bound strongly,0.3,3.2 ± 2.7,2.6 ± 0.2,4.9 ± 1,blocked adhesion; also recorded: able to block,5.8
